Assay results published in ChEMBL document CHEMBL1201862, “PubChem BioAssay data set” (2004).
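Assay format: 96-well plates, 48-hour exposure. Here, GI50 denotes the concentration required for 50% inhibition of growth.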 Activity calls are given as the source filed them. No stated cut-off is given here; in the data, active = GI50 up to about 1.1 µM and inactive = higher.

Experiments:
Test in all cases: inhibition of tumour cell growth, NCI panel, 48 h
SF-268 = test system: SF-268
NCI-H460 = test system: NCI-H460
RPMI-8226 = test system: RPMI-8226
OVCAR-5 = test system: OVCAR-5
786-0 = test system: 786-0
HOP-62 = test system: HOP-62
RXF 393 = test system: RXF 393
SF-539 = test system: SF-539
SK-MEL-5 = test system: SK-MEL-5
OVCAR-8 = test system: OVCAR-8
CAKI-1 = test system: CAKI-1
MDA-MB-231 = test system: MDA-MB-231
DU-145 = test system: DU-145
A498 = test system: A498
NCI-H23 = test system: NCI-H23
Malme-3M = test system: Malme-3M
HL-60 = test system: HL-60
UO-31 = test system: UO-31
K562 = test system: K562
XF498 = test system: XF498

SMILES | GI50 (SF-268) | GI50 (NCI-H460) | GI50 (RPMI-8226) | GI50 (OVCAR-5) | GI50 (786-0) | GI50 (HOP-62) | GI50 (RXF 393) | GI50 (SF-539) | GI50 (SK-MEL-5) | GI50 (OVCAR-8) | GI50 (CAKI-1) | GI50 (MDA-MB-231) | GI50 (DU-145) | GI50 (A498) | GI50 (NCI-H23) | GI50 (Malme-3M) | GI50 (HL-60) | GI50 (UO-31) | GI50 (K562) | GI50 (XF498)
O=C(SCc1cccc2ccccc12)c1ccc(Cl)cc1 | 80.4 µM (inactive) | 49 µM (inactive) | 46.9 µM (inactive) | > 100 µM (inactive) | > 100 µM (inactive) | > 100 µM (inactive) | > 100 µM (inactive) | > 100 µM (inactive) | 45.2 µM (inactive) | > 100 µM (inactive) | > 100 µM (inactive) | > 100 µM (inactive) | > 100 µM (inactive) | > 100 µM (inactive) | 95.3 µM (inactive) | 96.6 µM (inactive) | 48.5 µM (inactive) | > 100 µM (inactive) | 48.4 µM (inactive) | –
O=C(N/N=C/c1ccccc1)c1cccc2nc3ccccc3nc12 | > 80.2 µM (inactive) | 3.5 µM (inactive) | > 100 µM (inactive) | > 100 µM (inactive) | > 100 µM (inactive) | 4.15 µM (inactive) | > 100 µM (inactive) | > 100 µM (inactive) | 3.19 µM (inactive) | > 85.7 µM (inactive) | > 100 µM (inactive) | > 100 µM (inactive) | 17.9 µM (inactive) | 77.4 µM (inactive) | 6.07 µM (inactive) | > 100 µM (inactive) | > 100 µM (inactive) | > 100 µM (inactive) | > 100 µM (inactive) | –
O=C(O)CNC(=O)C1NC(C(F)(F)F)(C(F)(F)F)OC1(C(F)(F)F)C(F)(F)F (stereo unspecified) | > 100 µM (inactive) | > 100 µM (inactive) | > 100 µM (inactive) | > 100 µM (inactive) | > 100 µM (inactive) | > 100 µM (inactive) | > 100 µM (inactive) | > 100 µM (inactive) | > 100 µM (inactive) | > 100 µM (inactive) | > 100 µM (inactive) | > 100 µM (inactive) | > 100 µM (inactive) | > 100 µM (inactive) | > 100 µM (inactive) | > 100 µM (inactive) | > 100 µM (inactive) | > 100 µM (inactive) | > 100 µM (inactive) | –
CCOC(=O)c1cn(CC)c2ccc3c(c2c1=O)S(=O)(=O)C=C3 | > 100 µM (inactive) | > 100 µM (inactive) | > 100 µM (inactive) | > 100 µM (inactive) | > 100 µM (inactive) | > 100 µM (inactive) | 47 µM (inactive) | > 100 µM (inactive) | > 100 µM (inactive) | > 100 µM (inactive) | > 100 µM (inactive) | > 100 µM (inactive) | > 100 µM (inactive) | > 100 µM (inactive) | > 100 µM (inactive) | > 100 µM (inactive) | > 100 µM (inactive) | 60.1 µM (inactive) | > 100 µM (inactive) | –
CC(=O)NNc1nc(C)c(C(=O)NNC(=O)C(=O)Nc2ccc(Cl)cc2Cl)s1 | 27.4 µM (inactive) | > 10 µM (inactive) | 31.3 µM (inactive) | 55.1 µM (inactive) | 40.7 µM (inactive) | 38.5 µM (inactive) | – | 30.1 µM (inactive) | 30.5 µM (inactive) | 40.2 µM (inactive) | 28.3 µM (inactive) | – | – | – | 32.8 µM (inactive) | 57 µM (inactive) | 37.4 µM (inactive) | 28.2 µM (inactive) | 21 µM (inactive) | 30.1 µM (inactive)
COc1cc(Nc2nc3ccccc3nc2C(=O)O)cc(OC)c1OC | 28.3 µM (inactive) | 65.3 µM (inactive) | 70 µM (inactive) | > 100 µM (inactive) | 75.3 µM (inactive) | 22.8 µM (inactive) | > 100 µM (inactive) | > 100 µM (inactive) | 49.2 µM (inactive) | > 100 µM (inactive) | 16.4 µM (inactive) | 16.4 µM (inactive) | > 100 µM (inactive) | 35 µM (inactive) | 75.7 µM (inactive) | > 100 µM (inactive) | > 100 µM (inactive) | 21.6 µM (inactive) | > 100 µM (inactive) | –
Cn1/c(=N\c2ccc(Cl)cc2)sc2ccccc21 | > 100 µM (inactive) | 40.7 µM (inactive) | 92.3 µM (inactive) | 34.8 µM (inactive) | 37.7 µM (inactive) | 71.3 µM (inactive) | 50.8 µM (inactive) | 85.1 µM (inactive) | 27.7 µM (inactive) | 38.5 µM (inactive) | 34 µM (inactive) | 35.5 µM (inactive) | 26.6 µM (inactive) | 55.2 µM (inactive) | 38.9 µM (inactive) | 57.7 µM (inactive) | 44.9 µM (inactive) | 26.1 µM (inactive) | 57.9 µM (inactive) | –
O=C(Nc1ccccc1)Oc1ccccc1C1CCCCC1 | 36.3 µM (inactive) | 20 µM (inactive) | 19 µM (inactive) | 11.8 µM (inactive) | 17.2 µM (inactive) | 18.1 µM (inactive) | 2.96 µM (inactive) | 25.8 µM (inactive) | 13.5 µM (inactive) | 29.6 µM (inactive) | – | – | – | 30.6 µM (inactive) | 14.4 µM (inactive) | 21.1 µM (inactive) | 9.71 µM (inactive) | 13.1 µM (inactive) | 17.9 µM (inactive) | 19 µM (inactive)
O=[N+]([O-])c1cc(Cl)cc2cc(Br)cnc12 | > 10 µM (inactive) | > 31.6 µM (inactive) | > 31.6 µM (inactive) | > 31.6 µM (inactive) | 21.4 µM (inactive) | > 31.6 µM (inactive) | > 31.6 µM (inactive) | > 31.6 µM (inactive) | 16.7 µM (inactive) | 24.1 µM (inactive) | > 10 µM (inactive) | 21.1 µM (inactive) | > 31.6 µM (inactive) | 23.6 µM (inactive) | 26.9 µM (inactive) | > 31.6 µM (inactive) | > 31.6 µM (inactive) | > 31.6 µM (inactive) | > 31.6 µM (inactive) | –
CC(C)(Oc1ccc(Cl)cc1)C(=O)N(C(=O)N1CCC(c2ccccc2)CC1)c1ccccc1 | > 100 µM (inactive) | 16 µM (inactive) | 2.99 µM (inactive) | > 100 µM (inactive) | > 100 µM (inactive) | > 100 µM (inactive) | 13.6 µM (inactive) | > 100 µM (inactive) | 4.94 µM (inactive) | 8.47 µM (inactive) | 46 µM (inactive) | > 100 µM (inactive) | > 100 µM (inactive) | > 82.8 µM (inactive) | 8.79 µM (inactive) | 25.4 µM (inactive) | 1.6 µM (inactive) | 22.4 µM (inactive) | 4.2 µM (inactive) | –
C1CN(C23OC4(N5CCOCC5)C5C6CC(C7C6C4C72)C53)CCO1 (stereo unspecified) | > 100 µM (inactive) | > 100 µM (inactive) | > 100 µM (inactive) | > 100 µM (inactive) | > 100 µM (inactive) | > 100 µM (inactive) | > 100 µM (inactive) | > 100 µM (inactive) | > 100 µM (inactive) | > 100 µM (inactive) | > 100 µM (inactive) | > 100 µM (inactive) | > 100 µM (inactive) | > 100 µM (inactive) | > 100 µM (inactive) | > 100 µM (inactive) | > 100 µM (inactive) | > 100 µM (inactive) | > 100 µM (inactive) | –
CCOC(=O)c1[nH]c(Br)c(-c2ccc(Br)cc2)c1Br | 0.543 µM (active) | 5.25 µM (inactive) | 6.73 µM (inactive) | 2.5 µM (inactive) | 0.445 µM (active) | 0.671 µM (active) | 1.23 µM (inactive) | 0.441 µM (active) | 0.375 µM (active) | 0.527 µM (active) | 0.8 µM (active) | 1.2 µM (inactive) | 1.66 µM (inactive) | 1.61 µM (inactive) | 2.14 µM (inactive) | 0.38 µM (active) | 2.09 µM (inactive) | 1.32 µM (inactive) | 0.851 µM (active) | –
O=Cc1coc2ccccc2c1=O | 20.8 µM (inactive) | 20.9 µM (inactive) | 15.3 µM (inactive) | 23.1 µM (inactive) | 18.1 µM (inactive) | 19.1 µM (inactive) | 18 µM (inactive) | 16.1 µM (inactive) | 17.8 µM (inactive) | 15 µM (inactive) | 19.2 µM (inactive) | 18.5 µM (inactive) | 40.6 µM (inactive) | 44.2 µM (inactive) | 21.9 µM (inactive) | 9.68 µM (inactive) | 18.6 µM (inactive) | 11.9 µM (inactive) | 19.3 µM (inactive) | –
C=C1CC/C=C(\C)C(=O)C[C@@H]2[C@@H]1CC2(C)C [BUDDLEDIN C] | 14.1 µM (inactive) | 2.62 µM (inactive) | 2.02 µM (inactive) | 9.46 µM (inactive) | 0.975 µM (active) | 15.3 µM (inactive) | 1.85 µM (inactive) | 2.31 µM (inactive) | 2.84 µM (inactive) | 4.7 µM (inactive) | 1.38 µM (inactive) | 7.53 µM (inactive) | 3.16 µM (inactive) | 8.59 µM (inactive) | 5.2 µM (inactive) | 2.48 µM (inactive) | 0.129 µM (active) | 2.62 µM (inactive) | 1.82 µM (inactive) | –
COc1cc(CO)cc2c1[nH]c1ccccc12 [KOENOLINE] | > 25 µM (inactive) | 24.4 µM (inactive) | > 25 µM (inactive) | 20.8 µM (inactive) | > 25 µM (inactive) | > 25 µM (inactive) | > 25 µM (inactive) | > 25 µM (inactive) | > 25 µM (inactive) | > 25 µM (inactive) | – | – | – | – | – | > 25 µM (inactive) | > 25 µM (inactive) | > 25 µM (inactive) | 11.9 µM (inactive) | > 25 µM (inactive)
